Laboratory results from article PMC7151078, “A Novel NMDA Receptor Antagonist Protects against Cognitive Decline Presented by Senescent Mice” (Pharmaceutics, 2020).

Legend:
CYP1A2 = biological target: T1, CYP1A2 (Homo sapiens, UniProt P05177); assay: Cytochrome inhibition, fluorescent detection (CEC substrate); assay type: in vitro ADME; settings: recombinant human CYP1A2
T1 construct: host or cells: insect cell microsomes
T1 sequence (P05177 1-516): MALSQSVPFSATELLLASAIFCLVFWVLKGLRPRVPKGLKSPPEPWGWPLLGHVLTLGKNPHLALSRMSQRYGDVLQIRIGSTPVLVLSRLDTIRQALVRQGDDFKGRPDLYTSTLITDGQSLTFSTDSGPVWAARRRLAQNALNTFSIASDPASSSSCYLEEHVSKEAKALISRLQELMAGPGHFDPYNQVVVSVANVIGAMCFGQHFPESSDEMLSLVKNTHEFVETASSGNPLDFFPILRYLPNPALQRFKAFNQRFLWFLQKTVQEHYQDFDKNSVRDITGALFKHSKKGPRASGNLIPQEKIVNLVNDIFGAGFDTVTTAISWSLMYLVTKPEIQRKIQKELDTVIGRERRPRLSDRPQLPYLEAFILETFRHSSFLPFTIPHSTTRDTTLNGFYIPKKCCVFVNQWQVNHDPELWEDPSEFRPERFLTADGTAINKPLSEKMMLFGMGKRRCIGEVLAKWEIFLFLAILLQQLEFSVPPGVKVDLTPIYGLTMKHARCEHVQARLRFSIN
Description: (§1) To screen the inhibition potential of the compounds, recombinant human cytochrome P450 enzymes (CYP1A2, CYP2C9, CYP2C19, CYP2D6, and CYP3A4) and probe substrates were used with the fluorescent detection method. Incubations were conducted in 200-µL volume 96 well microtiter plates (COSTAR 3915). Addition of cofactor-buffer mixture (KH2PO4 buffer, 1.3 mM NADP+, 3.3 mM MgCl2, 3.3 mM Glucose-6-phosphate and 0.4 U/mL Glucose-6-phosphate Dehydrogenase), supersomes control, standard inhibitors (Furafyline, Tranylzypromine, Ketoconazole, Sulfaphenazole, and Quinidine; from Sigma Aldrich), and test compounds to plates were carried out using a a liquid handling station (Zephyr Caliper). The plate was then pre-incubated at 37 °C for 5 min, and the reaction initiated by the addition of pre-warmed enzyme/substrate (E/S) mix. […] Fluorescence per well was measured using a fluorescence plate reader (Tecan M1000 pro), and the percentage of inhibition was calculated.

CYP2C19 = biological target: T2, CYP2C19 (Homo sapiens, UniProt P33261); assay: as above; assay type: in vitro ADME; settings: recombinant human CYP2C19
T2 construct: host or cells: insect cell microsomes
Description: as §1

SAMR1 and SAMP8 mice = assay: Hippocampal gene expression by real-time qPCR; assay type: in vivo, mouse; settings: hippocampus
Description: Male SAMR1 and SAMP8 mice (n = 41) with 20-weeks-old were used to carry out cognitive and molecular analysis. The animals were randomly divided into four groups: SAMR1 control (SR1 Ct) group (n = 11), SAMP8 control (SP8 Ct) group (n = 8), SAMR1 treated with RL-208 (SR1 RL-208 (5 mg/Kg)) group (n = 10) and SAMP8 treated with RL-208 (SP8 RL-208 (5 mg/Kg)) group (n = 12). Animals had free access to food and water, under standard temperature conditions (22±2 °C) and 12h:12h light-dark cycles (300 lux/0 lux). RL-208, (3,4,8,9-tetramethyltetracyclo[4.4.0.0^3,9.0^4,8]dec-1-yl)-methylamine hydrochloride, (5 mg/kg/day) was administered through drinking water for four weeks before starting the cognitive test. RL-208 was administered up to euthanasia (Figure 1A). Water consumption was controlled each week for each cage and strain. Afterwards, RL-208 concentration was adjusted accordingly to reach the optimal dose for each cage. Total RNA isolation from hippocampal samples was carried out using TRIsure^TM reagent following the manufacturer’s instructions (Bioline, Meridian Bioscience Inc., UK). The yield, purity, and quality of RNA were determined spectrophotometrically with a NanoDrop^TM ND-1000 (Thermo Scientific, Wilmington, DE, USA) apparatus and an Agilent 2100B Bioanalyzer (Agilent Technologies, Palo Alto, CA, USA). RNAs with 260/280 ratios and RIN higher than 1.9 and 7.5, respectively, were selected. Reverse transcription-polymerase chain reaction (RT-PCR) was performed as follows: 2 μg of messenger RNA (mRNA) was reverse-transcribed using the High Capacity cDNA Reverse Transcription kit (Applied Biosystems, Foster City, CA, USA). Real-time quantitative PCR (qPCR) was used to quantify the mRNA expression of OS and synaptic plasticity genes listed in Table S2. SYBR® Green real-time PCR was performed on a Step One Plus Detection System (Applied-Biosystems, Foster City, CA, USA) employing SYBR® Green PCR Master Mix (Applied-Biosystems, Foster City, CA, USA). Each reaction mixture contained 6.75 μL of complementary DNA (cDNA) (which concentration was 2 μg), 0.75 μL of each primer (which concentration was 100 nM), and 6.75 μL of SYBR® Green PCR Master Mix (2X). Data were analyzed utilizing the comparative cycle threshold (Ct) method (ΔΔCt), where the housekeeping gene level was used to normalize differences in sample loading and preparation. Normalization of expression levels was performed with β-actin for SYBR® Green-based real-time PCR results. Each sample was analyzed in duplicate, and the results represent the n-fold difference of the transcript levels among different groups.

T2 sequence (P33261 whole entry): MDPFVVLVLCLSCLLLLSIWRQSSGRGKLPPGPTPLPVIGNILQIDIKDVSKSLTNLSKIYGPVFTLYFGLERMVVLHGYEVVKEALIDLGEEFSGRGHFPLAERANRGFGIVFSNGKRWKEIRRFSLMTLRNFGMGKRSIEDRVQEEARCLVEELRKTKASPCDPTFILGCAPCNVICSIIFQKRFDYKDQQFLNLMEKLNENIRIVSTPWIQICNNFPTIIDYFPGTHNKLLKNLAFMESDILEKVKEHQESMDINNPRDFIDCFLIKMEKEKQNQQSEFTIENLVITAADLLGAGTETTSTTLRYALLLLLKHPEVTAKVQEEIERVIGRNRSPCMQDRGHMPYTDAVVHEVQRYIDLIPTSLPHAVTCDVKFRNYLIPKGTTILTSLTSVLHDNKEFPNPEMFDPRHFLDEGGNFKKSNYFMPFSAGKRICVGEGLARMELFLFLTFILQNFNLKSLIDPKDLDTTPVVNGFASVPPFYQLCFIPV

- CYP1A2 inhibition (CYP1A2): 5 ± 2%
- CYP2C19 inhibition (CYP2C19): 23 ± 1%
Compound: CC12CC3CC1(C)C1(C)CC3(CN)CC21C.Cl [RL-208, (3,4,8,9-tetramethyltetracyclo [4.4.0.0^3,9.0^4,8]dec-1-yl)methylamine hydrochloride]
- Tgf gene expression (SAMR1 and SAMP8 mice; RL-208 treated mice groups vs control groups): significant gain
- Vgf gene expression (SAMR1 and SAMP8 mice; SP8 RL-208 vs SP8 Ct): significant increase
- Vgf gene expression (SAMR1 and SAMP8 mice; between SR1 mice groups): no changes
- Cox2 gene expression (SAMR1 and SAMP8 mice; treated groups vs controls, significant in the SP8 strain): decreased
- Hmox1 gene expression (SAMR1 and SAMP8 mice; treated mice): elevated
